Data from patent US20080161255A1, “Use of Parp Inhibitors for Prevention and Treatment of Diabetic and Insulin Resistance Complications” (priority 2003, published 2008).

Assays:
NFκB = NFκB activation (fluorescence in situ DNA-protein binding assay); format: cell-based, bovine; details: 30 mM glucose plus PJ34
Experimental: (§1) Cell culture conditions. Confluent bovine aortic endothelial cells (passage 4-10) were maintained in Eagle's MEM containing 0.4% FBS, essential and non-essential amino acid and antibiotics. Cells were incubated for 3 days prior to determination of PKC activity, 48 hr prior to determination of hexosamine pathway activity, for 5 days prior to determination of advanced glycation end product formation, and for 6 hr prior to determination of NFκB activation. Cells were infected with adenoviruses 48 hr prior to addition of 30 mM glucose.
NFκB activation. A fluorescence in situ DNA-protein binding assay was performed in cultured cells as described (Kurose et al., 1997), and fluorescence per cell was determined using IP Lab Spectrum (Scanalytics, Fairfax, Va.).

protein kinase C = assay: Protein kinase C activity (membrane fraction) in bovine aortic endothelial cells; format: cell-based; details: 30 mM glucose plus PJ34
Experimental: as §1
Protein kinase C activity. The assay was performed according to the manufacturer's instructions using the Protein Kinase C Assay System (Invitrogen, Carlsbad, Calif.).

GAPDH [1] = assay: GAPDH activity in bovine aortic endothelial cells; format: cell-based; details: 30 mM glucose; adenoviral overexpression or 3 mM PJ34
Experimental: Cell culture conditions. Confluent bovine aortic endothelial cells (passage 4-10) were maintained in Eagle's MEM containing 0.4% FBS, essential and non-essential amino acid and antibiotics. […] Cells were infected with adenoviruses 48 hr prior to addition of 30 mM glucose. Oligonucleotide synthesis and treatment of cells. […] The S-antisense GAPDH had the following sequence: [NT]. Scrambled oligonucleotides ([NT]) were used as controls. Oligo solutions were prepared in 10 mM TRIS buffer, pH 7.4, containing 1 mM EDTA NaCl. […], and the solution was added to the cells for 2 hr. GAPDH activity. BAECs were grown to confluency, harvested by using trypsin-EDTA after washing twice with PBS, and resuspended in lysis buffer. […] Protein was measured by using the Bio-Rad Coomassie Plus Protein Assay System. GAPDH activity was determined as described previously (Garcia et al., 2001; Tau et al., 1994).

hexosamine pathway = assay: Hexosamine pathway activity (UDP-GlcNAc concentration by HPLC); format: cell-based, bovine; details: 30 mM glucose plus PJ34
Experimental: as §1
Hexosamine pathway activity. Hexosamine pathway activity was assessed by measuring UDP-GlcNAc concentration. Cells were homogenized in three volumes (600 μl) of cold 0.6 M perchloric acid and kept at 0° C. for 10 min. The precipitated proteins were removed by centrifugation for 5 min at 13,500×g, and UDP-GlcNAc in the supernatant was determined by HPLC as previously described (13).

[2] = system: intracellular AGE formation; assay: Intracellular advanced glycation endproduct formation (quantitative immunoblotting); format: cell-based, bovine; details: 30 mM glucose plus PJ34
Experimental: as §1
Advanced glycation endproducts. Equal amounts of cell extract protein were used for quantitative immunoblotting performed as described (14). Methylglyoxal-derived imidazole advanced glycation endproducts were detected using monoclonal antibody 1H7G5 (identified above as IG7) at a 1:10,000 dilution. Immunocomplexes were visualized using an ECF kit according to the manufacturer's instructions (Amersham International, Piscataway, N.J.) and quantified using a Molecular Dynamics FluorImager and its ImageQuant 4.0 analytical software.

GAPDH [3] = assay: Poly(ADP-ribosyl)ation of GAPDH (immunoprecipitation and western blotting); format: cell-based, bovine; details: adenoviral overexpression or 3 mM PJ34
Experimental: Immunoprecipitation. BAECs were plated in 100 mm cell culture plates and grown to confluency. Cells (2×10^7) were scraped from the plates, and 500 μg of protein was immunoprecipitated with 4 μg of the indicated antibody and 20 μl of Protein A Sepharose 4B (Amersham Phamacia Biotech) in binding buffer (final concentration […]).
Western blotting. Immunoprecipitated proteins electrophoresed on 10% PAGE gels were transferred onto nitrocellulose membranes. The immunoblots were developed with 1:1000 dilutions of anti-poly(ADPribose) IgG, and the signal was detected with the ECL System according to the manufacturer's instructions (Amersham Pharmacia Biotech). The images were scanned into a Molecular Dynamics FluorImager and analyzed using the ImageQuant 5.5 program.

[4] = system: bovine aortic endothelial cells; assay: FFA-induced superoxide / reactive oxygen species generation in endothelial cells; format: cell-based; details: FFA-treated endothelial cells
Description: FIG. 8 is a graph of experimental data showing the effects of inhibitors of free fatty acid (FFA) oxidation (TDGA), UCP-1, and MnSOD on FFA-induced superoxide generation in bovine aortic endothelial cells.
Since mitochondrial β-oxidation of fatty acids yields the same electron donors as those obtained from glucose metabolism, that is, NADH and FADH2, we hypothesized that increased free fatty acid flux from adipose tissue to vascular endothelium would also increase mitochondrial production of superoxide.

prostacyclin synthetase = assay: Arterial prostacyclin synthetase activity in insulin resistant Fatty Zucker Rats; format: in vivo; details: Fatty Zucker Rats treated for one week; untreated had only 1% of control Zucker rat activity
Description: In order to examine whether this phenomenon was present in vivo, and thus had direct clinical relevance, we studied an accepted model of non-diabetic insulin resistance, the Fatty Zucker Rat. In these rats, we examined the activity of the endothelial cell surface enzyme prostacyclin synthetase, which produces a major anti-atherosclerotic product, prostacyclin. This enzyme is known to be directly inactivated by reactive oxygen species.

[5] = target: T1, poly(ADP-ribose) polymerase (Bos taurus, UniProt P18493); assay: Poly(ADP-ribose) polymerase activity in aortic endothelial cells; format: cell-based, bovine; details: aortic endothelial cells incubated with oleic acid at levels found in non-diabetic insulin resistance subjects
T1 construct: endogenous in cells; host or cells: bovine aortic endothelial cells
T1 sequence (P18493 whole entry): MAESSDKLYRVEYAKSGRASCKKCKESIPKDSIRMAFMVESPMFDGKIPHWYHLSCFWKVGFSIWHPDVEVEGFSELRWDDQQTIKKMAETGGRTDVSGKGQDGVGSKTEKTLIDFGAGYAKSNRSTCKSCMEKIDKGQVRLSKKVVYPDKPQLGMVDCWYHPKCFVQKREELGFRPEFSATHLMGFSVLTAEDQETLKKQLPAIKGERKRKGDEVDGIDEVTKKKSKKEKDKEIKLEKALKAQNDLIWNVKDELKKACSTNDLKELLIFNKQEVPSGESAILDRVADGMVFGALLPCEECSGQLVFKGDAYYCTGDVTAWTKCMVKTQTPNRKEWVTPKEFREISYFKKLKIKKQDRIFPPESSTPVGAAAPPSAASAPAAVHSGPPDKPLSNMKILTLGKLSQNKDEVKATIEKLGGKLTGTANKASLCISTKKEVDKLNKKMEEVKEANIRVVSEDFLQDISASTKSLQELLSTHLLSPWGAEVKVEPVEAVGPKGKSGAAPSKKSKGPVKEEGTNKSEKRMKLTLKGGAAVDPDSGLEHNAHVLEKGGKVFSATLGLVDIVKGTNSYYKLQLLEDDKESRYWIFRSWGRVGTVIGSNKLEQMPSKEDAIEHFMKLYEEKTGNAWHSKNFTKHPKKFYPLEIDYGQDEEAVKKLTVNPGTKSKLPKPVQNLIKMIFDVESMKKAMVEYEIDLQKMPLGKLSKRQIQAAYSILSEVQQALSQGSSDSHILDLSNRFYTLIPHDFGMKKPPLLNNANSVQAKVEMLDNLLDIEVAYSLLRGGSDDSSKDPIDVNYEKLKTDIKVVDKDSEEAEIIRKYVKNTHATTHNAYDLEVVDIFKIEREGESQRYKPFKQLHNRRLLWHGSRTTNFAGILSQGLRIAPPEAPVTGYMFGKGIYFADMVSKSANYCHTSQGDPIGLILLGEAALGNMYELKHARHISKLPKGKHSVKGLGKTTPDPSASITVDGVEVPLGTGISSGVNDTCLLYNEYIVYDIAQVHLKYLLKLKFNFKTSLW
Experimental: Poly(ADP-ribose) polymerase activity. Cells were incubated for 5 min at 37° C. in assay buffer containing 125 nmol NAD^+ spiked with 0.25 μCi of ^3H-NAD^+ (Amersham) as described (12). Enzyme activity was determined by measuring cpm incorporated into protein.

**Q.** Which “effect of 30 mM glucose on NFκB activation” value (NFκB) does the source give for `CN(C)CC(=O)Nc1ccc2[nH]c(=O)c3ccccc3c2c1` [PJ34, N-(oxo-5,6-dihdrophenanthridin-2-yl)-N,N-dimethylacetamide] here?
**A.** completely prevented

**Q.** What about the “activation of PKC by 30 mM glucose” value (protein kinase C) of the same molecule?
**A.** completely prevented

**Q.** And the “hyperglycemia-induced inhibition of GAPDH activity” value (GAPDH [1])?
**A.** prevention

**Q.** And the “effect of 30 mM glucose on UDP-N-acetylglucosamine concentration (hexosamine pathway)” value (hexosamine pathway)?
**A.** completely prevented

**Q.** What about the “effect of 30 mM glucose on intracellular AGE formation” value [2] of the same molecule?
**A.** completely prevented

**Q.** What about the “poly(ADP-ribosyl)ation of GAPDH induced by 30 mM glucose” value (GAPDH [3]) of the same molecule?
**A.** completely prevented

**Q.** Which “ability of FFAs to induce reactive oxygen species in endothelial cells” value [4] does the source give for `CCCCCCCCCCCCCCC1(C(=O)O)CO1` (stereo not shown) [TDGA] here?
**A.** inhibited

**Q.** With `O=C(O)c1ccc(-c2c3nc(c(-c4ccc(C(=O)O)cc4)c4ccc([n-]4)c(-c4ccc(C(=O)O)cc4)c4nc(c(-c5ccc(C(=O)O)cc5)c5ccc2[n-]5)C=C4)C=C3)cc1.[Mn+3]` [MnTBAP, Manganese (III) tetrakis(4-benzoic acid) porphyrin] as the molecule, how does the “activity of prostacyclin synthetase in aortas” value (prostacyclin synthetase) read?
**A.** restored to supranormal levels

**Q.** With `CCCCCCCC/C=C\CCCCCCCC(=O)O` [oleic acid] as the molecule, how does the “increase of PARP activation” value [5] read?
**A.** 1.5 fold

**Q.** `O=C(O)c1cccnc1` [nicotinic acid] was tested. Which “activity of prostacyclin synthetase in aortas” value (prostacyclin synthetase) did it give?
**A.** restored to normal levels
